Entries after “also recorded” stand apart in the source; their conditions may differ.
Legend:
Type in all cases: cell-based, mouse
NIH-3T3 cells [1] = test: Western blot of NIH-3T3 cells (collagen I, GCN2, ATF4, PC); details: for rescue of TGFβ-induced collagen I depletion: metabolite; for GCN2 activation: cell-permeable metabolite
Source text: PSCs were isolated from C57BL/6 mice by differential centrifugation as previously described^49 and their mesenchymal origin was validated by analyzing the expression of various mesenchymal and epithelial markers. MFBs were isolated from FVB/N mice by differential centrifugation as previously described^50. DB7 mouse breast cancer cells were obtained from Alexander Borowsky (University of California Davis Comprehensive Cancer Center, Sacramento, CA, USA) through an MTA to Ohio State University (OSU). KPC (Kras^LSL-G12D; Trp53^LSL-R172H; Pdx1-Cre) mouse PDAC cells were a gift from Scott Lowe (Memorial Sloan Kettering Cancer Center. (MSKCC)). All cells were cultured at 37° C. in 5% carbon dioxide (CO2) and 20% oxygen (O2) and were maintained in Dulbecco's Modified Eagles medium (DMEM) (25 mM D-glucose, 2 mM L-glutamine) supplemented with 10% fetal bovine serum (FBS) (Gemini), 100 units/ml penicillin and 100 μg/ml streptomycin. Primary PSC and MFB cells were kept in culture for no more than ten passages. Experiments with iCAFs and myCAFs were performed as previously described^29. In brief, qPSCs were generated by culturing PSCs in a dome of GFR Matrigel (Corning) in DMEM; iCAFs were generated by culturing PSCs in a dome of GFR Matrigel in DMEM conditioned by KPC cells for 48 h; myCAFs were generated by monolayer culture of PSCs. Differentiation was validated by analyzing the expression of iCAF/myCAF markers^29. For experiments with different glutamine concentrations, cells were seeded in regular DMEM and the medium was changed 5-6 hours later or the following day to glucose and glutamine-free DMEM supplemented with 10% dialyzed FBS (Gemini) and 20 mM D-glucose, 2 mM L-glutamine (100%), 0.4 mM L-glutamine (20%) or 0.2 mM L-glutamine (10%). All media were prepared by the Media Preparation Facility at MSKCC. Cells were verified as mycoplasma-free by the MycoAlert Mycoplasma Detection Kit (Lonza).
Lysates were generated by incubating cells or ground tumors in RIPA buffer (Millipore); […] of cleared lysate were analyzed by SDS-polyacrylamide gel electrophoresis (SDS-PAGE) as previously described^11. […] The following secondary antibodies were used: anti-rabbit horseradish peroxidase (HRP) (1:5,000; GE, NA934V), anti-mouse HRP (1:5,000; GE, NA931). Quantification of band intensities of collagen I relative to […] or vinculin in tumor allograft experiments was performed with Image Lab software v6.0 (Bio-Rad).

NIH-3T3 cells [2] = test: Relative metabolite abundance (GC-MS), NIH-3T3 cells; details: for TGFβ-induced depletion of TCA cycle intermediates and NEAAs: 10% Gln, metabolite 5 mM, 48 hours (FIG. 8I)
Procedure: Cells were plated in six-well cell culture plates at a concentration aimed to reach 0.5-1×10^6 cells at the time of harvest. For quantification of relative metabolite abundance, cells were cultured with glutamine-free DMEM containing different concentrations of L-glutamine and supplemented with 10% dialyzed FBS and in some experiments were treated with TGFβ for 48 hours. For the [U-^13C]and [3,4-^13C]glucose tracing experiments, cells were cultured as above, and in the last 8 hours media was replaced with DMEM without D-glucose and L-glutamine supplemented with 2 mM or 0.2 mM L-glutamine and 10 mM [U-^13C]or [3,4-^13C]D-glucose (Cambridge Isotope Laboratories) and 10% dialyzed FBS. […] For relative quantification of metabolites by gas chromatography-mass spectroscopy (GC-MS), cells were washed briefly with PBS, which was then fully aspirated and metabolism was quenched by immediately adding 1 mL of 80:20 methanol:water stored at −80° C. containing 20 μM deuterated 2-hydroxyglutarate (d5-2HG) as an internal standard. […]
GC-MS measurements were performed as described before^11. Ions used for quantification of metabolite levels were as follows: d5-2HG m/z 354; citrate m/z 465; alpha-ketoglutarate m/z 304; succinate m/z 247; fumarate m/z 245; malate m/z 335; aspartate m/z 232; hydroxyproline m/z 332; proline m/z 216; glutamate m/z 246; glutamine m/z 245; lactate m/z 219; pyruvate m/z 174. […] For relative quantification of cell samples, integrated peak areas were normalized to the internal standard d5-2HG and to the packed cell volume of each sample. Absolute quantification of hydroxyproline in tumor acid hydrolysates was performed against a standard curve of commercial trans-4-hydroxy-L-proline (Sigma). […]

NIH-3T3 cells [3] = test: Quantification of gene expression (qPCR), fibroblasts; details: for Col1a1 mRNA expression: PC-deleted cells, 10% Gln, 48 hours (FIG. 5D, FIG. 11N)
Procedure: Total RNA was isolated from fibroblasts with Trizol (Life Technologies) according to the manufacturer's instructions, and […] RNA was used for cDNA synthesis using iScript (Bio-Rad). Real-time qPCR analysis was performed in technical triplicates using 1:40 diluted cDNAs and 0.1 μM forward and reverse primers together with Power SYBR Green (Life Technologies) in a QuantStudio 7 Flex (Applied Biosystems). Gene expression was quantified in Microsoft Excel 365 as relative expression ratio using primer efficiencies calculated by a relative standard curve. The geometric mean of the endogenous control genes 18 s, Actb and Rplp0 was used as reference sample.

[4] = PC-deleted cells, low Gln, 48 hours (FIG. 4B; MFBs FIG. 11E)
[5] = low Gln (10%), TGFβ, 48 hours (FIG. 1E)

Compound | rescue of TGFβ-induced collagen I depletion (NIH-3T3 cells [1]; 10% Gln, TGFβ, 48 hours) | collagen I levels (NIH-3T3 cells [1]; [4]) | GCN2 activation (NIH-3T3 cells [1]; low Gln (10%), TGFβ, 48 hours) | TGFβ-induced depletion of TCA cycle intermediates and NEAAs (NIH-3T3 cells [2]) | Col1a1 mRNA expression (NIH-3T3 cells [3]) | collagen I production (NIH-3T3 cells [1]; 10% Gln, TGFβ) | collagen I levels (NIH-3T3 cells [1]; 20% Gln, TGFβ, 48 hours (FIG. 1B)) | repressive phosphorylation of the E1α subunit of the pyruvate dehydrogenase (PDH) complex (NIH-3T3 cells [1]; 100% Gln, TGFβ 48 hours (FIG. 3B)) | collagen I levels in growing cells (NIH-3T3 cells [1]; 100% and 50% Gln, TGFβ, 48 hours) | PC protein levels (NIH-3T3 cells [1]; all fibroblast types analysed, TGFβ 48 hours) | ATF4 (NIH-3T3 cells [1]; [5]) | GCN2 phosphorylation (NIH-3T3 cells [1]; [5]) | free levels of most TCA cycle intermediates (NIH-3T3 cells [2]; low Gln (10%), TGFβ, 48 hours (FIG. 1H)) | PC transcript levels (NIH-3T3 cells [3]; all fibroblast types analysed, 100% Gln, TGFβ 24 hours)
COC(=O)CC[C@H](N)C(=O)OC [dm-Glu, L-glutamic acid dimethylester] | sufficient to restore | increased | prevented | rescued | rescued | – | – | – | – | – | – | – | – | –
COC(=O)CCC(=O)C(=O)OC [dm-αKG, dimethyl alpha-ketoglutarate] | able to rescue | increased | prevented; also recorded: suppressed | rescued | rescued | – | – | – | – | – | – | – | – | –
TGFβ: transforming growth-factor beta; TGFβ-1 purchased from Peprotech | – | – | – | – | – | ceased to proliferate and produce collagen I | no longer able to increase | reduced | upregulated | reduced | upregulated | displayed phosphorylation | substantially reduced | reduced
